Tested on: human neutrophils
Format: cell-based

## CCCCCCCCCCCCCC(=O)O[C@@H]1[C@@H](C)[C@@]2(O)[C@@H](C=C(CO)C[C@]3(O)C(=O)C(C)=C[C@@H]23)[C@@H]2C(C)(C)[C@]12OC(C)=O [PMA, phorbol 12-myristate 13-acetate]
  NET formation (DNA staining): abundant lattices of extracellular NET-DNA filaments

From patent US20190234936A1 (priority 2016, published 2019)
